Experimental data taken from US20220315624A1, “THIOSTREPTON ANALOGS AND METHODS OF MAKING AND USING SAME” (YALE UNIVERSITY, priority 2019, published 2022).
Values after ≈ are worked out from the molar mass of the structure shown. Read-outs that look alike come from different tables or passages of the source.

Legend:
[1] = Aqueous solubility analysis in MOPS buffer; assay type: physicochemical; details: thermodynamic from solid, after 24 hours in 10 mM aqueous MOPS buffer, pH 7.2
Method: A 2 dram vial was loaded with ˜0.5 mg of a thiostrepton derivative and suspended in ˜4 mL of aqueous 10 mM MOPS buffer (pKa 7.2). The suspension was stirred vigorously for 24 h to ensure equilibration, then filtered through a […] centrifuge filtration unit. A 3.0 mL aliquot was concentrated, and the dried residue was diluted with 0.30 mL of 1:1 1,4-dioxane/H2O (10× original concentration necessitated by detection limits). The total UV absorbance (200-300 nm) was measured in triplicate by UPLC runs with a photodiode array detector. A calibration curve for each compound was created using data points from 3 trials each of concentrations in 1:1 1,4-dioxane/H2O ranging from […]. These concentrations were plotted against their respective average absorbances. The experimental concentration of each compound was calculated by dividing the found μg/mL value by the residue concentration factor of 10 to yield the actual solubility value.

[2] = system: E. faecalis ATCC 29212 VSE; experiment: MIC broth microdilution; assay type: cell-based; details: Enterococcus faecalis, ATCC29212
Method: (§1) Twenty-four test agents were shipped to Micromyx and stored at −20° C. until assayed. The compounds were dissolved in 100% DMSO at 6.46 mg/mL prior to testing. Comparator drugs were supplied by Micromyx and were handled as described below:
(§2) The test organisms for the assay were recent clinical isolates or reference strains acquired from the American Type Culture Collection (ATCC; Manassas, Va.). Upon receipt, the isolates were streaked onto Trypticase Soy Agar II+5% sheep blood (TSAB). Colonies were harvested from the plates and a cell suspension was prepared in Trypticase Soy Broth containing cryoprotectant. Aliquots were then frozen at −80° C. Prior to the assay, the frozen seeds of all bacterial isolates to be tested were thawed and streaked for isolation onto TSAB (BD/BBL, Sparks, Md.; Lot No. 9011894), and were incubated overnight at 35° C.
(§3) The test medium for all isolates was cation-adjusted Mueller Hinton broth (CAMHB; BD/BBL; Lot No. 8190586). CAMHB (Cation Adjusted Mueller Hinton Broth) was supplemented with 3% (v/v) lysed horse blood (LHB; Hemostat, Dixon, Calif.; Lot No. 474990) for the testing of streptococci.
(§4) MIC values were determined using a broth microdilution method as recommended by CLSI. Automated liquid handlers (Multidrop 384, Labsystems, Helsinki, Finland; Biomek 2000 and Biomek F/X, Beckman Coulter, Fullerton Calif.) were used to conduct serial dilutions and make liquid transfers.
(§5) The wells of standard 96-well microdilution plates (Costar 3795, Corning Inc., Corning, N.Y.) were filled with 150 μL of the appropriate diluent in columns 2-12 on the Multidrop 384 (DMSO for the thiostrepton analogs, deionized H2O for vancomycin and ceftazidime). These plates were used to prepare the drug “mother plate” which provided the serial drug dilutions for the replicate “daughter plates”. The compounds (300 μL) were dispensed at 101× the highest concentration to be tested into the appropriate row of the “mother plate”. The Biomek 2000 was used to transfer 150 μL of each stock solution from the wells in Column 1 of the mother plate to make ten subsequent 2-fold serial dilutions. The wells of Column 12 contained no drug and served as the organism growth control wells. The daughter plates were loaded with 190 μL of test medium using the Multidrop 384.
(§6) The daughter plates were prepared on the Biomek F/X instrument which transferred […] of drug solution from each well of the mother plate to each corresponding well of each daughter plate in a single step. The wells of the daughter plates ultimately contained 190 μL of media, 2 μL of drug solution, and 10 μL of inoculum prepared as described below. The final concentration of DMSO (if used as a solvent) in the test well was 1%.
(§7) A standardized inoculum of each organism was prepared per CLSI methods. A suspension of organisms from a fresh plate was prepared in CAMHB to equal the turbidity of a 0.5 McFarland standard. The suspensions were diluted 1:20 in CAMHB, or in the case of streptococci CAMHB with LHB. The inoculum for each organism was dispensed into sterile reservoirs divided by length (Beckman Coulter), and the Biomek 2000 was used to inoculate the plates. Daughter plates were placed on the Biomek 2000 work surface reversed so that inoculation took place from low to high drug concentration. The Biomek 2000 delivered 10 μL of standardized inoculum into each well. These dilutions yielded a final cell concentration in the daughter plates of approximately 5.0×10^5 CFU/mL.
(§8) Plates were stacked 3 high, covered with a lid on the top plate, placed in plastic bags, and incubated at 35° C. for 16-20 hr for all organisms except streptococci which were incubated for 20-24 hr. Following incubation, the microplates were removed from the incubator and viewed from the bottom using a plate viewer. The MIC was read and recorded as the lowest concentration of drug that inhibited visible growth of the organism. […]

[3] = system: S. pyogenes ATCC 19615; experiment: MIC broth microdilution; assay type: cell-based; details: Streptococcus pyogenes, ATCC19615, 20 h
Method: as §1, §2, §3, §4, §5, §6, §7, §8

[4] = system: S. pneumoniae ATCC 49619 PISP; experiment: MIC broth microdilution; assay type: cell-based; details: Streptococcus pneumoniae, ATCC49619, 20 h
Method: as §1, §2, §3, §4, §5, §6, §7, §8

[5] = system: S. aureus ATCC 29213 MSSA; experiment: MIC broth microdilution; assay type: cell-based; details: Staphylococcus aureus
Method: as §1, §2, §3, §4, §5, §6, §7, §8

[6] = system: E. coli ATCC 25922; experiment: MIC broth microdilution; assay type: cell-based; details: Escherichia coli, ATCC25922
Method: as §1, §2, §3, §4, §5, §6, §7, §8

[7] = system: E. faecium MMX 708 VSE; experiment: MIC broth microdilution; assay type: cell-based; details: Enterococcus faecium, MMX708VSE
Method: as §1, §2, §3, §4, §5, §6, §7, §8

[8] = system: S. aureus MMX 8088 MRSA; experiment: MIC broth microdilution; assay type: cell-based; details: Staphylococcus aureus
Method: as §1, §2, §3, §4, §5, §6, §7, §8

[9] = system: E. faecium MMX 485 VRE; experiment: MIC broth microdilution; assay type: cell-based; details: Enterococcus faecium
Method: as §1, §2, §3, §4, §5, §6, §7, §8

[10] = system: E. faecalis MMX 486 VRE; experiment: MIC broth microdilution; assay type: cell-based; details: Enterococcus faecalis
Method: as §1, §2, §3, §4, §5, §6, §7, §8

[11] = E. faecalis ATCC 29212 VSE, CAMHB, read-out: MIC
[12] = S. pyogenes ATCC 19615, CAMHB with 3% lysed horse blood, read-out: MIC
[13] = S. pneumoniae ATCC 49619 PISP, CAMHB with 3% lysed horse blood, read-out: MIC
[14] = S. aureus ATCC 29213 MSSA, CAMHB, read-out: MIC
[15] = E. coli ATCC 25922, CAMHB, read-out: MIC
[16] = E. faecium MMX 708 VSE, CAMHB, read-out: MIC
[17] = S. aureus MMX 8088 MRSA, CAMHB, read-out: MIC
[18] = E. faecium MMX 485 VRE, CAMHB, read-out: MIC
[19] = E. faecalis MMX 486 VRE, CAMHB, read-out: MIC

solubility at 24 h ([1]; aqueous 10 mM MOPS buffer) | MIC [2, 11] | MIC [3, 12] | MIC [4, 13] | MIC [5, 14] | MIC [6, 15] | MIC [7, 16] | MIC [8, 17] | MIC [9, 18] | MIC [10, 19] | SMILES | solubility at 24 h [1] | MIC [2] | MIC [3] | MIC [4] | MIC [5] | MIC [6] | MIC [7] | MIC ([8]; MRSA) | MIC ([9]; VRE) | MIC ([10]; VRE)
 |  |  |  |  |  |  |  |  |  | C=C(NC(=O)c1csc(C2=N[C@@H]3c4csc(n4)[C@H]4NC(=O)c5csc(n5)[C@H]([C@](C)(O)[C@@H](C)O)NC(=O)C5CSC(=N5)/C(=C/C)NC(=O)[C@H]([C@@H](C)O)NC(=O)c5csc(n5)[C@]3(CC2)NC(=O)[C@H](C)NC(=O)C(=C)NC(=O)[C@H](C)NC(=O)[C@H]([C@@H](C)CC)N[C@@H]2C=Cc3c([C@H](C)O)cc(nc3[C@H]2O)C(=O)O[C@@H]4C)n1)C(=O)NC(=CNC(=O)c1ccccc1)C(N)=O [RJS-02] | < 1 µg/mL | 1 µg/mL (≈ 0.561 µM) | 2 ng/mL (≈ 0.00112 µM) | 8 ng/mL (≈ 0.00448 µM) | 1 µg/mL (≈ 0.561 µM) | > 64 µg/mL | 0.5 µg/mL (≈ 0.28 µM) | 2 µg/mL (≈ 1.12 µM) | 0.5 µg/mL (≈ 0.28 µM) | 1 µg/mL (≈ 0.561 µM)
1.1 µg/mL (≈ 0.602 µM) | 1 µg/mL (≈ 0.548 µM) | 4 ng/mL (≈ 0.00219 µM) | 4 ng/mL (≈ 0.00219 µM) | 1 µg/mL (≈ 0.548 µM) | > 64 µg/mL | 1 µg/mL (≈ 0.548 µM) | 2 µg/mL (≈ 1.1 µM) | 0.5 µg/mL (≈ 0.274 µM) | 1 µg/mL (≈ 0.548 µM) | C=C(NC(=O)c1csc(C2=N[C@@H]3c4csc(n4)[C@H]4NC(=O)c5csc(n5)[C@H]([C@](C)(O)[C@@H](C)O)NC(=O)C5CSC(=N5)/C(=C/C)NC(=O)[C@H]([C@@H](C)O)NC(=O)c5csc(n5)[C@]3(CC2)NC(=O)[C@H](C)NC(=O)C(=C)NC(=O)[C@H](C)NC(=O)[C@H]([C@@H](C)CC)N[C@@H]2C=Cc3c([C@H](C)O)cc(nc3[C@H]2O)C(=O)O[C@@H]4C)n1)C(=O)NC(=CNC(=O)c1cccc(C(C)=O)c1)C(N)=O [RJS-05] |  |  |  |  |  |  |  |  |  | 
28 µg/mL (≈ 16 µM) | 1 µg/mL (≈ 0.571 µM) | 8 ng/mL (≈ 0.00457 µM) | 15 ng/mL (≈ 0.00856 µM) | 0.5 µg/mL (≈ 0.285 µM) | > 64 µg/mL | 1 µg/mL (≈ 0.571 µM) | 1 µg/mL (≈ 0.571 µM) | 0.5 µg/mL (≈ 0.285 µM) | 1 µg/mL (≈ 0.571 µM) | C=C(NC(=O)c1csc(C2=N[C@@H]3c4csc(n4)[C@H]4NC(=O)c5csc(n5)[C@H]([C@](C)(O)[C@@H](C)O)NC(=O)C5CSC(=N5)/C(=C/C)NC(=O)[C@H]([C@@H](C)O)NC(=O)c5csc(n5)[C@]3(CC2)NC(=O)[C@H](C)NC(=O)C(=C)NC(=O)[C@H](C)NC(=O)[C@H]([C@@H](C)CC)N[C@@H]2C=Cc3c([C@H](C)O)cc(nc3[C@H]2O)C(=O)O[C@@H]4C)n1)C(=O)NC(=CNC(=O)COC)C(N)=O [RJS-06] |  |  |  |  |  |  |  |  |  | 
